Data on four molecules can be found in ChEMBL document CHEMBL1629537, “Non-natural macrocyclic inhibitors of histone deacetylases: design, synthesis, and activity” (J Med Chem, 2010).

Molecules are shown by their SMILES.

One assay deals with Histone deacetylase 2 (Homo sapiens, UniProt Q92769).
The target of a further assay is Histone deacetylase 4 (Homo sapiens, UniProt P56524). Nature of the assay: Inhibition of human HDAC4 by fluorimetric assay.
Another assay addresses Histone deacetylase 3 (Homo sapiens, UniProt O15379).
The next assay has as its target Histone deacetylase 9 (Homo sapiens, UniProt Q9UKV0). The assay can be described thus: Inhibition of human HDAC9 by fluorimetric assay.
Another assay has as its target Histone deacetylase 1 (Homo sapiens, UniProt Q13547). The assay can be described thus: Inhibition of human HDAC1 by fluorimetric assay.
A further assay relates to NCI-H460. The assay can be described thus: cells. It counts as functional, cell-based. The following applies: Homo sapiens, NCI-H460, 48 h.
A further assay has as its target T1, Histone deacetylase 7 (Homo sapiens, UniProt Q8WUI4).
T1 sequence (Q8WUI4 whole entry): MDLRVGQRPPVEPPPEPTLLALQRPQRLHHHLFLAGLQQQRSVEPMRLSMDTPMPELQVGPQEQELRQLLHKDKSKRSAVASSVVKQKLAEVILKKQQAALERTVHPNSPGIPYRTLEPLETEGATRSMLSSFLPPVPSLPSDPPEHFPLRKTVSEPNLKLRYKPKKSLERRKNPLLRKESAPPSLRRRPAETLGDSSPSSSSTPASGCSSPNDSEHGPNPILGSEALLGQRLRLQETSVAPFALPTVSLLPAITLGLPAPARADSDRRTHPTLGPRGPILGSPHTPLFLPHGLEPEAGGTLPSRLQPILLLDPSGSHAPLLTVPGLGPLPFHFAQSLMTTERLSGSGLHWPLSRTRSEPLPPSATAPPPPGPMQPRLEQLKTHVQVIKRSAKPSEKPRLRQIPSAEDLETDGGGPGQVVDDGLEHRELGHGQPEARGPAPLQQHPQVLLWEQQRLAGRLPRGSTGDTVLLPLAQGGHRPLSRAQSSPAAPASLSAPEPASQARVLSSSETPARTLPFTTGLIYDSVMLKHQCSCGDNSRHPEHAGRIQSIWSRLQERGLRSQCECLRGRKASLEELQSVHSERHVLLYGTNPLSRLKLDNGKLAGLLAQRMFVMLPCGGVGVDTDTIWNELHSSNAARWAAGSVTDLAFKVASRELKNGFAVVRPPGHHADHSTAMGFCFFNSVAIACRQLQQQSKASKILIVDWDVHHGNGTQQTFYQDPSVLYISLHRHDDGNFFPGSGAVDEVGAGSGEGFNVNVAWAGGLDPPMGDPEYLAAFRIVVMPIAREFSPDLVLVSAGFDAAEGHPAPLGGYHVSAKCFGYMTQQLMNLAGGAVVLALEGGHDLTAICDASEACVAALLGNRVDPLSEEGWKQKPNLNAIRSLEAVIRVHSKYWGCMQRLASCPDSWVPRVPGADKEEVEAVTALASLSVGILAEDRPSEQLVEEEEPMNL
Nature of the assay: Inhibition of human HDAC7 by fluorimetric assay.

The target of the next assay is T2, Histone deacetylase 8 (Homo sapiens, UniProt Q9BY41).
T2 sequence (Q9BY41 whole entry): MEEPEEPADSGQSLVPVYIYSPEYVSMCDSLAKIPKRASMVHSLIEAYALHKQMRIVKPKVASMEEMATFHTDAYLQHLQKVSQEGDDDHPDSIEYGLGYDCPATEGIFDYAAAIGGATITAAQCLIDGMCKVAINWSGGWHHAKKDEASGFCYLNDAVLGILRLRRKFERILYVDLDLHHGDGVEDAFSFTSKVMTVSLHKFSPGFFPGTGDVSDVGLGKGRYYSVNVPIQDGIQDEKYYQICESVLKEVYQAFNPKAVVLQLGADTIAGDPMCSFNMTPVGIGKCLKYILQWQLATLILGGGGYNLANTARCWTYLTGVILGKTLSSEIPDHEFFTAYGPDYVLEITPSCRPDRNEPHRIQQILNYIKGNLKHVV
The assay can be described thus: Inhibition of human HDAC8 by fluorimetric assay.

The next assay concerns the target Histone deacetylase 5 (Homo sapiens, UniProt Q9UQL6). The assay can be described thus: Inhibition of human HDAC5 by fluorimetric assay.
The subject of a further assay is HCT-116. Nature of the assay: cells. The format is functional, cell-based. Conditions: Homo sapiens, HCT-116, 48 h.
Assay [1] deals with T3, Protein deacetylase HDAC6 (Homo sapiens, UniProt Q9UBN7).
T3 sequence (Q9UBN7 whole entry): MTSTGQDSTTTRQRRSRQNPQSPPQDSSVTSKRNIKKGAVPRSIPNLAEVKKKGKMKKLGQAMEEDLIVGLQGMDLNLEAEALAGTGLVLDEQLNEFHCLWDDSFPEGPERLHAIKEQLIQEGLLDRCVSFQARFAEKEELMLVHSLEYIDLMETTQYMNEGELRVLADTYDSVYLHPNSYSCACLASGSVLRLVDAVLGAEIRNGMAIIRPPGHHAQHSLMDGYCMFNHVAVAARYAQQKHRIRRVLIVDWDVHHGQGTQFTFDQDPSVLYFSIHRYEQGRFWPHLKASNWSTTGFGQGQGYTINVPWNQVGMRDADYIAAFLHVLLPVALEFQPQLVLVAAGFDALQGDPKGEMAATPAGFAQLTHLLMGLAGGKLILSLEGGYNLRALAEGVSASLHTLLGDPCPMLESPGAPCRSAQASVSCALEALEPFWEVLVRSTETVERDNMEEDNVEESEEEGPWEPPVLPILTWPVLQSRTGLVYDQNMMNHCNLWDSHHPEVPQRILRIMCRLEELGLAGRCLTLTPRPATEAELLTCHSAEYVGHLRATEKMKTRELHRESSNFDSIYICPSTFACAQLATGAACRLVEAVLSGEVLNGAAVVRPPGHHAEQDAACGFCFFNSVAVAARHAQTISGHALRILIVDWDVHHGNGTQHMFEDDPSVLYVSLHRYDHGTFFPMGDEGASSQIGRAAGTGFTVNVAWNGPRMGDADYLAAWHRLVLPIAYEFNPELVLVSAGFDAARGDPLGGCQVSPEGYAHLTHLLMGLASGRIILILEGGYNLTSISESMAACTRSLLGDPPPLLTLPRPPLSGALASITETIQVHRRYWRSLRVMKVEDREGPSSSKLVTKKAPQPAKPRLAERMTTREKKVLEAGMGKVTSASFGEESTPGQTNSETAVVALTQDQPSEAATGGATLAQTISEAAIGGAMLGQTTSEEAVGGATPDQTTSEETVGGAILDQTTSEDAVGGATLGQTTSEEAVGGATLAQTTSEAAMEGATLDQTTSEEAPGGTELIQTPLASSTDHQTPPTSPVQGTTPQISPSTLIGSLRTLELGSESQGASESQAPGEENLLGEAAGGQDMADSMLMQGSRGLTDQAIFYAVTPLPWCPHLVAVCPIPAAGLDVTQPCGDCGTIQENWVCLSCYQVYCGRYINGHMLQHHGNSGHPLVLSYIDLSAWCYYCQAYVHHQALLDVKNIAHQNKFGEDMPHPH
The assay can be described thus: Inhibition of human HDAC6 by fluorimetric assay.

Sequence of Histone deacetylase 4 (P56524 whole entry): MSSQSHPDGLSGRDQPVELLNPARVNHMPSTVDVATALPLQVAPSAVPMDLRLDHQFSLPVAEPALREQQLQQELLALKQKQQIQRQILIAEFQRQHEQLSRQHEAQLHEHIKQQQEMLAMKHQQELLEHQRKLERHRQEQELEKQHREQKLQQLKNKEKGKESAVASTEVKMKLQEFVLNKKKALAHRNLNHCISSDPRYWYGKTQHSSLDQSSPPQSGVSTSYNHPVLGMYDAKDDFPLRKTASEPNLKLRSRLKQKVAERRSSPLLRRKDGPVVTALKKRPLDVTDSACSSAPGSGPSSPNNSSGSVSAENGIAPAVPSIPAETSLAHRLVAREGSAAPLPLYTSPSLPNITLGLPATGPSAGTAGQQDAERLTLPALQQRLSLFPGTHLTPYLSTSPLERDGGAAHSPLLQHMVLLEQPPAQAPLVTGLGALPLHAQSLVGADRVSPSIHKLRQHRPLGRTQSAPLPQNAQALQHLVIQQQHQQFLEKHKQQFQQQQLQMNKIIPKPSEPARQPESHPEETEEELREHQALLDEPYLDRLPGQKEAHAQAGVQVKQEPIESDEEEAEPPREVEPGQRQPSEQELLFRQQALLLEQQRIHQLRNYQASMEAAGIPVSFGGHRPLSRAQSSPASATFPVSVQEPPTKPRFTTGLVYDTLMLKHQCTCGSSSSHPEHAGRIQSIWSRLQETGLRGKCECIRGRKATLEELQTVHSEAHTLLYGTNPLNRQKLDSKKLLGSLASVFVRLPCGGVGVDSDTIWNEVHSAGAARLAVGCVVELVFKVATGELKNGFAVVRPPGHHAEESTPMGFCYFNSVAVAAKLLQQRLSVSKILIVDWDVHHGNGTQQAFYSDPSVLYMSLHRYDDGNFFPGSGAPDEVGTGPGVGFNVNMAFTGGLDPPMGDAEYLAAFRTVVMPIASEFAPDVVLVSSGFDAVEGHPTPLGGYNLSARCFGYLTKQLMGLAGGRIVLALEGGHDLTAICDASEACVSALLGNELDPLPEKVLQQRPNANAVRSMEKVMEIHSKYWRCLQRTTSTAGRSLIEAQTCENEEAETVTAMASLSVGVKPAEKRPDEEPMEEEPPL
Sequence of Histone deacetylase 2 (Q92769 whole entry): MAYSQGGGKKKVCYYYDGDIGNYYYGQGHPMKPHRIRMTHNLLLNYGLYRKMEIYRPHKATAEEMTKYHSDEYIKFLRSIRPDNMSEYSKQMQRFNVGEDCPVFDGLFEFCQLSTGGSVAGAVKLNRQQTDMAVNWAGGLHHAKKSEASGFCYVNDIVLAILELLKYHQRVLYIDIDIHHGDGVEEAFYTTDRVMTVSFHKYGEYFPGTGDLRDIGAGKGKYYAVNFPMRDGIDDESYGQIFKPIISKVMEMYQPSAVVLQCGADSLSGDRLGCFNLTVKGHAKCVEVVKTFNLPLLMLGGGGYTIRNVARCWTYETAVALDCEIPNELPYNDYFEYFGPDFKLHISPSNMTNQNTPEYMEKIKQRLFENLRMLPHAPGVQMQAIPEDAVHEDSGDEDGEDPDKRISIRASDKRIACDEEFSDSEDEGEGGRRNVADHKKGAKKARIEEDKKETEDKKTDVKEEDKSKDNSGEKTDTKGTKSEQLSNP
Sequence of Histone deacetylase 1 (Q13547 whole entry): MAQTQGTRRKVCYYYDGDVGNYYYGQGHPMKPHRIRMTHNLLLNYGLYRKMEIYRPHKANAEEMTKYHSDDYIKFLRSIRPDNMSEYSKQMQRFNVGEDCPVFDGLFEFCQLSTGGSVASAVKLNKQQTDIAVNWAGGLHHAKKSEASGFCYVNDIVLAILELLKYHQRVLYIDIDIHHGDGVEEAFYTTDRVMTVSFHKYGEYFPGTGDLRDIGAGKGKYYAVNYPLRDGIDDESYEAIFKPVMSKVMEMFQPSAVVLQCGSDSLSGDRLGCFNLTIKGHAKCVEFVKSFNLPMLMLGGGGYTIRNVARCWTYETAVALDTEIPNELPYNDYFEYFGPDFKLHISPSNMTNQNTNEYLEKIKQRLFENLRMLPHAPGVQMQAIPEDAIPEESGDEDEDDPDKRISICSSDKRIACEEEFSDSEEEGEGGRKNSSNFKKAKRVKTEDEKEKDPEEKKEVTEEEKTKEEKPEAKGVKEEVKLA
Sequence of Histone deacetylase 3 (O15379 whole entry): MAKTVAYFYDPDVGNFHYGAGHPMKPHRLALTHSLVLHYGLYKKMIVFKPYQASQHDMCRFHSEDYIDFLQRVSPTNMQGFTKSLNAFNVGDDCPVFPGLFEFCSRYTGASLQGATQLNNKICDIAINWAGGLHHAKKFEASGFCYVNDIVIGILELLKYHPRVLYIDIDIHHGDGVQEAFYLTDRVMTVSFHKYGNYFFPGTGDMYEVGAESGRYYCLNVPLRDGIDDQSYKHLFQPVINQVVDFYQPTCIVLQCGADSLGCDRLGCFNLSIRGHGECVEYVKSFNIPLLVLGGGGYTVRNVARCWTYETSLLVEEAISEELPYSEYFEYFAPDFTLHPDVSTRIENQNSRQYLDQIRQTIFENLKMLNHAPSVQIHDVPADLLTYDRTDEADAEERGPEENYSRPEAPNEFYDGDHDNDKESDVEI
Sequence of Histone deacetylase 9 (Q9UKV0 whole entry): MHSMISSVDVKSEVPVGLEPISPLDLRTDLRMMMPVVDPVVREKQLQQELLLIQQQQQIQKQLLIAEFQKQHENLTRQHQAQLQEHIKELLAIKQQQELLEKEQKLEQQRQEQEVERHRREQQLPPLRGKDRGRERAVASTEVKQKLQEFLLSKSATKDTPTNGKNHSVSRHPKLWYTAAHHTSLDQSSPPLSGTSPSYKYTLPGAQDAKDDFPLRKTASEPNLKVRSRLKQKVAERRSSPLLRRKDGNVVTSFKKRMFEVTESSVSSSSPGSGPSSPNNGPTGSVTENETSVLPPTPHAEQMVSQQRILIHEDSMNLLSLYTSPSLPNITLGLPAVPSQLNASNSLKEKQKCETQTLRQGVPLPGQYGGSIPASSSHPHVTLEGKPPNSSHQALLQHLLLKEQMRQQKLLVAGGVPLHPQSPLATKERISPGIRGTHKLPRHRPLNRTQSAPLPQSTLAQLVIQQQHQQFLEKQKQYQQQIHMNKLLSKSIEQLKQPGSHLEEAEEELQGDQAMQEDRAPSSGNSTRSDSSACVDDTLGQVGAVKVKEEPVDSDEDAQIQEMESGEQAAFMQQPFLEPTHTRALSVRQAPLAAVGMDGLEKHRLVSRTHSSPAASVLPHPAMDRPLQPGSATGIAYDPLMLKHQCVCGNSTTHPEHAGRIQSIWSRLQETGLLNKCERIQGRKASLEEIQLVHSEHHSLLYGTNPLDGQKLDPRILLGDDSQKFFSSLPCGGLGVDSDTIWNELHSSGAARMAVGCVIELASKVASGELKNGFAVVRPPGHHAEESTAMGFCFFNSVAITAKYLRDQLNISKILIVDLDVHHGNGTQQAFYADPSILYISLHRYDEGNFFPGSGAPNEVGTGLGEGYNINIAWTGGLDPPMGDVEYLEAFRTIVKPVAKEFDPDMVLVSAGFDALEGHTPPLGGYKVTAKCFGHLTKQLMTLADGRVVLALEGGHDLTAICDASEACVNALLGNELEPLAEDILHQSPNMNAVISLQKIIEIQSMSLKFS
Sequence of Histone deacetylase 5 (Q9UQL6 whole entry): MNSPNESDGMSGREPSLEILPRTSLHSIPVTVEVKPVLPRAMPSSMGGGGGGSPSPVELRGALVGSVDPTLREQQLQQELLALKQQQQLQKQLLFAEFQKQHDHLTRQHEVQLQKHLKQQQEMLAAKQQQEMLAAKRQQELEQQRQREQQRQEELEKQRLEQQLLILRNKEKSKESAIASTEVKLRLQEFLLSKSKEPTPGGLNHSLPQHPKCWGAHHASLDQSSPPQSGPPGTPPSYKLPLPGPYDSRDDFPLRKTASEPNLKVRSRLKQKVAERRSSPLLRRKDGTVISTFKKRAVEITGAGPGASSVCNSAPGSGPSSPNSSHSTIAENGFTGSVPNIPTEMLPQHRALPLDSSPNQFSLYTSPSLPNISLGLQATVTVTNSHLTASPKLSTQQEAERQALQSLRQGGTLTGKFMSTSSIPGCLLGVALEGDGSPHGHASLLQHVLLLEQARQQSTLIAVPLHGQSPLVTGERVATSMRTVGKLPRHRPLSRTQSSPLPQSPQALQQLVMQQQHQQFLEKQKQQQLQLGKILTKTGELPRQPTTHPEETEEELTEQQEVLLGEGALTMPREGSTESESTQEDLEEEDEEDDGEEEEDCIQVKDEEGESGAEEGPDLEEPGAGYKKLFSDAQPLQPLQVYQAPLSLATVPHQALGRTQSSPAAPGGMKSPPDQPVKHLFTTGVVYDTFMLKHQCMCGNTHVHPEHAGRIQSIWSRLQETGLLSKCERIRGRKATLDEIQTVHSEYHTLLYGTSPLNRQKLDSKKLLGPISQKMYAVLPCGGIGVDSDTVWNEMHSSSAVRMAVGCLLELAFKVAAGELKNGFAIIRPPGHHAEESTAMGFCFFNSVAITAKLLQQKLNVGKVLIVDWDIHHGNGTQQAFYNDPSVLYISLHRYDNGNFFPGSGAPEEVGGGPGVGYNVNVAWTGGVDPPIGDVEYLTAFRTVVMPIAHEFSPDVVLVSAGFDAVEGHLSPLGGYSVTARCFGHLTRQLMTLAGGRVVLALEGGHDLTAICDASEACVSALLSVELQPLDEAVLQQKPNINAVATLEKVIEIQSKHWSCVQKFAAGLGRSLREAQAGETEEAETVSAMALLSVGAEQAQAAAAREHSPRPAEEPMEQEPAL

For orientation: IC50 means the point on the concentration scale where inhibition reaches its midpoint. With `COc1cc2cc(c1)COc1ccccc1NC(=O)[C@H](CCCCCC(=O)NO)OC/C=C\2`, the IC50 amounted to 0.158 µM against Histone deacetylase 2; 0.0794 µM against Histone deacetylase 4; 0.0557 µM on Histone deacetylase 3; 0.0606 µM against Histone deacetylase 9; 0.0317 µM on Histone deacetylase 1; 1.05 µM in the assay on NCI-H460. Moreover, the IC50 at Histone deacetylase 7 came out at 0.0278 µM; against Histone deacetylase 8, 0.198 µM; on Histone deacetylase 5, 0.0622 µM; in the assay on HCT-116, 0.69 µM; in assay [1], 0.00084 µM.

As to `COc1cc2cc(c1)COc1ccccc1NC(=O)[C@@H](CCCCCC(=O)NO)OC/C=C\2`, the IC50 was 0.382 µM at Histone deacetylase 2; 0.284 µM on Histone deacetylase 4; 0.089 µM on Histone deacetylase 3; 0.302 µM on Histone deacetylase 9; 0.0781 µM on Histone deacetylase 1; 0.82 µM in the assay with NCI-H460. The IC50 against Histone deacetylase 7 turned out to be 0.18 µM; against Histone deacetylase 8, 0.206 µM; against Histone deacetylase 5, 0.155 µM; with HCT-116, 0.64 µM; in assay [1], 0.0102 µM.

`O=C(CCCCCC1OCCCCCOc2ccccc2NC1=O)NO` (racemic): the IC50 against Histone deacetylase 2 turned out to be 1.93 µM; against Histone deacetylase 4, 2.58 µM; at Histone deacetylase 3 it was 0.369 µM; against Histone deacetylase 9, 1.9 µM; against Histone deacetylase 1, 0.949 µM; in the assay with NCI-H460 it was 2 µM. For the same molecule, the IC50 against Histone deacetylase 7 turned out to be 1.72 µM; against Histone deacetylase 8, 0.643 µM; against Histone deacetylase 5, 1.34 µM; in the assay with HCT-116, 0.69 µM; in assay [1] it was 0.0156 µM.

With `COc1cc2cc(c1)COc1ccccc1NC(=O)C(CCCCCC(=O)NO)OC/C=C\2` (racemic), the IC50 was 0.207 µM on Histone deacetylase 2; 0.159 µM against Histone deacetylase 4; 0.0396 µM at Histone deacetylase 3; 0.0996 µM against Histone deacetylase 9; 0.0307 µM against Histone deacetylase 1; 0.88 µM in the assay on NCI-H460. The IC50 was determined as 0.0726 µM against Histone deacetylase 7; 0.119 µM on Histone deacetylase 8; 0.0554 µM against Histone deacetylase 5; 0.45 µM in the assay on HCT-116; 0.00197 µM in assay [1].
